# From patent publication US5693524A, “Anticoccidial composition of UK-61 689 and Actinomadura mycelium” (Pfizer Inc., priority 1995, dated 1997)
# Like-named read-outs stand apart in the source and are kept apart here.
# Columns and labels:
# coccidiosis = settings: EP application 169011; cited from earlier work
# Actinomyces pyogenes = test: In vitro minimal inhibitory concentration (MIC), Actinomyces pyogenes; type: cell-based; settings: 24 hours
# [1] = system: coccidial infections in poultry; test: Activity against coccidial infections in poultry (lesion scores)
# E. maxima = test: Efficacy against coccidial infection in chickens, E. maxima (lesion scores 0 to 3); settings: in diet at levels of 15 to 120 ppm
# Eimeria tenella = test: Efficacy against coccidial infection in chickens, Eimeria tenella (lesion scores 0 to 4); settings: in diet at levels of 15 to 120 ppm
# E. acervulina = test: Efficacy against coccidial infection in chickens, E. acervulina (lesion scores 0 to 3); settings: in diet at levels of 15 to 120 ppm, evaluated after five days
# [2] = system: Gram-positive microorganisms; test: Inhibitory action against growth of Gram-positive microorganisms in vitro; type: cell-based
# Method: In Table I, below, the results of in vitro tests are summarized. For this test each organism is inoculated in a series of test tubes containing nutrient medium and varying concentrations of Antibiotic UK-61,689 to determine the minimal concentration of the compound in g/ml which inhibits the growth of the organism over a period of 24 hours (MIC).
# Clostridium perfringens = test: microbe, parasite or virus in culture; type: cell-based; settings: 24 h
# E. necatrix = test: Efficacy against coccidial infection in chickens, E. necatrix (lesion scores 0 to 3); settings: in diet at levels of 15 to 120 ppm
# Treponema hyodysenteriae = test: In vitro minimal inhibitory concentration (MIC), Treponema hyodysenteriae; type: cell-based
# E. brunetti = test: Efficacy against coccidial infection in chickens, E. brunetti (lesion scores 0 to 3); settings: in diet at levels of 15 to 120 ppm
smiles,measurement,setting,value
"COC1CCC(OC2CC(C3OC(C)(OC)C(C)CC3C)OC2C2(C)CCC(C3(C)CCC4(CC(OC)C(C)C(C(C)C5OC(O)(CC(=O)O)C(C)C(OC6CCC(OC)C(C)O6)C5OC)O4)O3)O2)OC1C (stereo not shown) [CP-70,828]",antibiotic / anticoccidial effectiveness,coccidiosis,antibiotically effective in controlling coccidiosis
"COC1CCC(OC2CC(C3OC(C)(O)C(C)CC3C)OC2C2(C)CCC(C3(C)CCC4(CC(O)C(C)C(C(C)C5OC(O)(CC(=O)O)C(C)C(OC6CCC(OC)C(C)O6)C5OC)O4)O3)O2)OC1C (stereo not shown) [UK-58,852]",antibiotic / anticoccidial effectiveness,coccidiosis,"effective antibiotic, especially anticoccidial agent"
"COC1CCC(OC2CC(C3OC(C)(OC)C(C)CC3C)OC2C2(C)CCC(C3(C)CCC4(CC(O)C(C)C(C(C)C5OC(O)(CC(=O)O)C(C)C(OC6CCC(OC)C(C)O6)C5OC)O4)O3)O2)OC1C (stereo not shown) [CP-70,228]",antibiotic / anticoccidial effectiveness,coccidiosis,antibiotically effective in controlling coccidiosis
"COC1CCC(OC2CC(C3OC(C)(O)C(C)CC3C)OC2C2(C)CCC(C3(C)CCC4(CC(O)C(C)C(C(C)C5OC(O)(CC(=O)O)C(C)C(O)C5OC)O4)O3)O2)OC1C (stereo not shown) [UK-61,689]",MIC,Actinomyces pyogenes; Actinomyces pyogenes strain 14D008,50 µg/mL
same,MIC,Actinomyces pyogenes; Actinomyces pyogenes strain 14D011,50 µg/mL
same,MIC,"Actinomyces pyogenes; Trueperella pyogenes, Actinomyces pyogenes strain 14D002, read-out: MIC",50 µg/mL
same,activity against coccidial infections in poultry,[1],excellent activity
same,controlling infections due to E. maxima,E. maxima,effective in controlling infections
same,controlling infections due to Eimeria tenella,Eimeria tenella,effective in controlling infections
same,controlling infections due to E. acervulina,E. acervulina,effective in controlling infections
same,inhibitory action against the growth of Gram-positive microorganisms,[2],exhibits inhibitory action against the growth of a number of Gram-positive microorganisms
same,MIC,Clostridium perfringens; Clostridium perfringens strain 10A006,50 µg/mL
same,MIC,Clostridium perfringens; Clostridium perfringens strain 10A009,12.5 µg/mL
same,controlling infections due to E. necatrix,E. necatrix,effective in controlling infections
same,MIC,"Treponema hyodysenteriae; Brachyspira hyodysenteriae, 24 h, Treponema hyodysenteriae strain 94A001",3.12 µg/mL
same,MIC,"Treponema hyodysenteriae; Brachyspira hyodysenteriae, 24 h, Treponema hyodysenteriae strain 94A002",3.12 µg/mL
same,MIC,"Treponema hyodysenteriae; Brachyspira hyodysenteriae, Treponema hyodysenteriae strain 94A007, 24 hours, read-out: MIC",1.56 µg/mL
same,MIC,"Treponema hyodysenteriae; Treponema hyodysenteriae strain 94A008, 24 hours",1.56 µg/mL
same,controlling infections due to E. brunetti,E. brunetti,effective in controlling infections
